Data from ChEMBL document CHEMBL1909046, “DrugMatrix in vitro pharmacology data”.

Key:
[1] = DRUGMATRIX: Purinergic P2X radioligand binding (ligand: [3H] alpha, beta-Methylene-ATP); assay type: cell membranes, Oryctolagus cuniculus, New Zealand albino, Urinary bladder, Membrane; settings: Not Active = under 50% inhibition at 10 µM
[2] = molecular target: Kappa-type opioid receptor (Homo sapiens, UniProt P41145); test: DRUGMATRIX: Opiate kappa (OP2, KOP) radioligand binding (ligand: [3H] Diprenorphine); assay type: cell membranes, HEK293, Membrane; settings: hek293; Not Active = under 50% inhibition at 10 µM
Kappa-type opioid receptor, sequence (P41145 whole entry): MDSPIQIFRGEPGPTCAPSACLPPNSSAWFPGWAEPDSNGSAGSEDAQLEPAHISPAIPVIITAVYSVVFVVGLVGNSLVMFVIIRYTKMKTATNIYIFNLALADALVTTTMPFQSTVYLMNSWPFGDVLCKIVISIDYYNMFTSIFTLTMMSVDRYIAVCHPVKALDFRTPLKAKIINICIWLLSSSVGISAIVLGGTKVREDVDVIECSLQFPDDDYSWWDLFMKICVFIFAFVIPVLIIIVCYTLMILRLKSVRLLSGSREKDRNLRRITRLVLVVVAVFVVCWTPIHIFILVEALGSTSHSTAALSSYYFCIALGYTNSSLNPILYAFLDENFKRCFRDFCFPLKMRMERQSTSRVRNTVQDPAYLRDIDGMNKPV

[3] = molecular target: Adenosine receptor A2a (Homo sapiens, UniProt P29274); test: DRUGMATRIX: Adenosine A2A radioligand binding (ligand: […]); assay type: cell membranes, HEK293, Membrane; settings: hek293; Not Active = under 50% inhibition at 10 µM
Adenosine receptor A2a, sequence (P29274 whole entry): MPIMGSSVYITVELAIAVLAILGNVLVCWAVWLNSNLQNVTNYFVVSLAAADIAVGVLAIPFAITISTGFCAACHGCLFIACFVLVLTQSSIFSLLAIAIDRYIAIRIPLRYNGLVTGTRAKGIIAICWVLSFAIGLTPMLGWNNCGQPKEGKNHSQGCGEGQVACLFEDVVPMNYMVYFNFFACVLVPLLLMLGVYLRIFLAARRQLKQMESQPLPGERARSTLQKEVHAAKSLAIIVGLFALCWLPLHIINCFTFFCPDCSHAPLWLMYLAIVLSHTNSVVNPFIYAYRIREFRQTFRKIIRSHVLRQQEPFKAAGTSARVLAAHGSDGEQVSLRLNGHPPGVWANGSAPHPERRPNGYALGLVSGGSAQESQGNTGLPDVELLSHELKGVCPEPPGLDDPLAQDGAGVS

[4] = DRUGMATRIX: Tumor Necrosis Factor (TNF), Non-Selective radioligand binding (ligand: [125I] TNF-alpha); assay type: cell membranes, Membrane; settings: u-937; Not Active = under 50% inhibition at 10 µM
[5] = molecular target: Nitric oxide synthase 1 (Rattus norvegicus, UniProt P29476); assay type: tissue-based, Cerebellum; further: in other assays of this panel Not Active means under 50% inhibition at 10 µM
Nitric oxide synthase 1, sequence (P29476 whole entry): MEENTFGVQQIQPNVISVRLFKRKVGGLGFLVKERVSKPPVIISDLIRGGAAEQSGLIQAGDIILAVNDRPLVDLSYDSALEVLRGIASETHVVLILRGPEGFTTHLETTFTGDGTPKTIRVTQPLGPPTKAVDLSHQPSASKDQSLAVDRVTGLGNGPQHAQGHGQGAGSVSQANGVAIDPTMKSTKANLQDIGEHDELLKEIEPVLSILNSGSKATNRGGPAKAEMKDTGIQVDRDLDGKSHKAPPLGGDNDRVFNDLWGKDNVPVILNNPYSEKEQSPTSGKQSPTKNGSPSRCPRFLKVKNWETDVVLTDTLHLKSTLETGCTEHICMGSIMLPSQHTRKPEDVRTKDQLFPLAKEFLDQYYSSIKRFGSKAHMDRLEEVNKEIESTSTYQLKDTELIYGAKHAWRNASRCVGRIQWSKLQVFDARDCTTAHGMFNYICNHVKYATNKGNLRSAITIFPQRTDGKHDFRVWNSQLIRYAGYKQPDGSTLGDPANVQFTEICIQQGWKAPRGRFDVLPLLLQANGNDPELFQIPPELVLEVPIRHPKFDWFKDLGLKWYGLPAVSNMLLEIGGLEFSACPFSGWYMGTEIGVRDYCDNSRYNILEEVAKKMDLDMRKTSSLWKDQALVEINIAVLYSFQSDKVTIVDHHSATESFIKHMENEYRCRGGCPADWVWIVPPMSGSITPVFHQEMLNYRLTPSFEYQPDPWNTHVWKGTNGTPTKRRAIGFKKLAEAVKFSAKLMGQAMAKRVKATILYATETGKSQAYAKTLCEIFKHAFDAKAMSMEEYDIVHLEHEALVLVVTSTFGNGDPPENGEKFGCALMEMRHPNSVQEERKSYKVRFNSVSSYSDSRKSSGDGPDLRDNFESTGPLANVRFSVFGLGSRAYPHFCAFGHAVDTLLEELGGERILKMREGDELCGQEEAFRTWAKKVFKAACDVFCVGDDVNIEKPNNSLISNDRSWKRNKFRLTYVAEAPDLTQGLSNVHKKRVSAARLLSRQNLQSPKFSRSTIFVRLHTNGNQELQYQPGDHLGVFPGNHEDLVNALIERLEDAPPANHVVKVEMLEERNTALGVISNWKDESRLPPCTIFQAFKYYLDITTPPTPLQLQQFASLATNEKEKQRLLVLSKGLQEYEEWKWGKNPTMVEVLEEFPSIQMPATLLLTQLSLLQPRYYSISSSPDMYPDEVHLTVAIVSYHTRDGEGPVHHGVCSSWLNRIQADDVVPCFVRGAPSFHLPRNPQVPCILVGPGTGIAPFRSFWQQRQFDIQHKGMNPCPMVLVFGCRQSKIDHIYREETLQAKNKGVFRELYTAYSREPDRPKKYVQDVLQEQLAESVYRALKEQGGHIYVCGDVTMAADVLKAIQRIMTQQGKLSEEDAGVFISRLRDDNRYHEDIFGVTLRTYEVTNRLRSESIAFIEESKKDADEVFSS

[6] = molecular target: T1, Cytochrome P450 2A6 (Homo sapiens, UniProt P11509); settings: bti-tn-5b1-4; further: in other assays of this panel Not Active means under 50% inhibition at 10 µM
T1 sequence (P11509 whole entry): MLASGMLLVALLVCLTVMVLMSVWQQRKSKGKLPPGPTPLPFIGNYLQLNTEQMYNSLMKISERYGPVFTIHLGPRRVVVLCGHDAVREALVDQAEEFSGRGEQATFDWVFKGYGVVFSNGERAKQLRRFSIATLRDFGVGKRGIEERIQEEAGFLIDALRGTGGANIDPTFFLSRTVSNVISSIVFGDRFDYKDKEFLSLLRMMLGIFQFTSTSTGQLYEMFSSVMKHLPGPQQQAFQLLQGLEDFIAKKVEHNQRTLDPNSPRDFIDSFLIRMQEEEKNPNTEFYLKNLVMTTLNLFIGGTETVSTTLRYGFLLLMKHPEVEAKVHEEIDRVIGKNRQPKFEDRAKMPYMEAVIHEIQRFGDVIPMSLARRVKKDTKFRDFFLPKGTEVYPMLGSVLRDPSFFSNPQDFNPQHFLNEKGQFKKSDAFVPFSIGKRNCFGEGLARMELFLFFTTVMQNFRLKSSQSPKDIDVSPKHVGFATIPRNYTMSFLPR

[7] = DRUGMATRIX: Phosphodiesterase PDE4 enzyme inhibition (substrate: [3H]cAMP + cAMP); settings: u-937; Not Active = under 50% inhibition at 10 µM

CNC(=C[N+](=O)[O-])NCCSCc1csc(CN(C)C)n1 [NIZATIDINE]
Not Active: IC50 [1] | Ki [1] | IC50 [2] | IC50 [3] | IC50 [4] | Ki [4] | IC50 [5] | IC50 [6] | Ki [6] | IC50 [7] | Ki [7]

C[C@]12C/C(=C/O)C(=O)C[C@@H]1CC[C@@H]1[C@@H]2CC[C@@]2(C)[C@H]1CC[C@]2(C)O [OXYMETHOLONE]
Not Active: IC50 [1] | Ki [1] | IC50 [2] | IC50 [3] | IC50 [4] | Ki [4] | IC50 [5] | IC50 [6] | Ki [6] | IC50 [7] | Ki [7]

CC(C)(CO)C(O)C(=O)NCCCO (stereo not drawn) [PANTHENOL]
Not Active: IC50 [1] | Ki [1] | IC50 [2] | IC50 [3] | IC50 [4] | Ki [4] | IC50 [5] | IC50 [6] | Ki [6] | IC50 [7] | Ki [7]

OCCN1CCN(CCCN2c3ccccc3Sc3ccc(Cl)cc32)CC1 [PERPHENAZINE]
Not Active: IC50 [1] | Ki [1] | IC50 [2] | IC50 [3] | IC50 [4] | Ki [4] | IC50 [5] | IC50 [6] | Ki [6] | IC50 [7] | Ki [7]

CCCCC1C(=O)N(c2ccccc2)N(c2ccccc2)C1=O [PHENYLBUTAZONE]
Not Active: IC50 [1] | Ki [1] | IC50 [2] | IC50 [3] | IC50 [4] | Ki [4] | IC50 [5] | IC50 [6] | Ki [6] | IC50 [7] | Ki [7]

Cc1cccc(Nc2cc(Cl)nc(SCC(=O)O)n2)c1C [PIRINIXIC ACID]
Not Active: IC50 [1] | Ki [1] | IC50 [2] | IC50 [3] | IC50 [4] | Ki [4] | IC50 [5] | IC50 [6] | Ki [6] | IC50 [7] | Ki [7]

CC[C@H](C)C(=O)O[C@H]1C[C@H](O)C=C2C=C[C@H](C)[C@H](CC[C@@H](O)C[C@@H](O)CC(=O)O)[C@H]21 [PRAVASTATIN]
Not Active: IC50 [1] | Ki [1] | IC50 [2] | IC50 [3] | IC50 [4] | Ki [4] | IC50 [5] | IC50 [6] | Ki [6] | IC50 [7] | Ki [7]

CC(C)(Sc1cc(C(C)(C)C)c(O)c(C(C)(C)C)c1)Sc1cc(C(C)(C)C)c(O)c(C(C)(C)C)c1 [PROBUCOL]
Not Active: IC50 [1] | Ki [1] | IC50 [2] | IC50 [3] | IC50 [4] | Ki [4] | IC50 [5] | IC50 [6] | Ki [6] | IC50 [7] | Ki [7]
